Measured values reported in patent US12465605B2, “Methods and materials for gender-dependent treatment of cardiovascular dysfunction” (Mayo Foundation for Medical Education and Research, priority 2019, dated 2025).

Tests used:
[1] = system: ldlr^−/−/apoB^100/100 mice; assay: ldlr-deficient, apoB100-only mice on western diet with established aortic valve disease (FCAVS); assay type: in vivo, mouse; settings: for relative collagen fiber thicknesses: picrosirius red
Text: Pre-clinical animal studies: ldlr^−/−/apoB^100/100 mice are low density lipoprotein receptor-deficient, apolipoprotein B100-only mice that consistently develop severe, hemodynamically significant calcific aortic valve stenosis. Thus, these mice develop stenosis in a manner suitable for studying the effects of pharmacological interventions on initiation and progression of calcific aortic valve stenosis.
Two groups of ldlr^−/−/apoB^100/100 mice were placed on Western Diet (WD) for six months, a time point that allowed the mice to develop mild-to-moderate valvular stenosis. At the six-month time point, mice were randomized into two groups: • (1) continued western diet (WD)/continued disease progression group, or • (2) continued western diet+ataciguat in food (WD+ATA)/treatment group.
At the nine-month time point, mice underwent echocardiography (high resolution ultrasound) and blood pressure (tail cuff) measurement, and were sacrificed for tissue and molecular analyses of valvular tissue (histology, immunohistochemistry, quantitative real-time RT-PCR).
A therapeutically-relevant treatment strategy in which ldlr-deficient, apoB100-only mice were fed a western diet for six months (to develop mild/moderate FCAVS) followed by western diet plus ataciguat (150 ppm mixed in food).

[2] = system: patients with mild-to-moderate calcific aortic valve stenosis; assay: Phase I clinical trial, 14 days, blood pressure and orthostatic tolerance; assay type: in vivo, human
Text: Phase I clinical trial design: Patients with mild-to-moderate calcific aortic valve stenosis (valve area between 1.0 cm^2 and 2.0 cm^2) with well-preserved left ventricular function (ejection fraction>50%) were recruited for participation in a randomized, double-blind, placebo-controlled trial. After screening, patients were randomized into two groups: • (1) placebo treatment for 14 days, or • (2) ataciguat treatment for 14 days. Patients underwent a series of tests to assess baseline blood pressure (seated and supine body positions), orthostatic tolerance (transition to standing, tilt table testing), and blood tests to assess liver enzyme function.
Combining ataciguat's role as an activator of heme-free sGC with reports of increased systemic oxidative stress in patients with FCAVS (Mourino-Alvarez et al., Int. J Cardiol., 225:99-106 (2016)), it was conceivable that administration of ataciguat could elicit acute hypotension or increase propensity to experience orthostatic hypotension. To investigate this possibility, a randomized, double-blind, placebo-controlled, dose-escalation study was conducted to assess the effects of ataciguat on orthostatic tolerance using both a standing test (highly functional) and a tilt table test (highly sensitive).

[3] = 14 days, vs pre-treatment or placebo

## O=C(Nc1ccc(S(=O)(=O)N2CCOCC2)cc1)c1cc(Cl)ccc1NS(=O)(=O)c1ccc(Cl)s1 [ataciguat, 5-chloro-2-[[(5-chloro-2-thienyl)sulfonyl]amino]-N-[4-(4-morpholinylsulfonyl)phenyl]-benzamide]
[1]; WD-fed mice, male and female
  ejection fraction: not improved further
[1]; both male and female mice
  canonical TGFβ signaling (SMAD2/3 phosphorylation) in valve tissue: increased
[1]; female mice
  Col1a1 expression (mRNA): significantly reduced
  expression of Col15a1 (mRNA): tended to be reduced
  relative collagen fiber thicknesses: increase the fraction of thinner fibers
[1]; long-term treatment
  aortic valve function (cusp separation distance by echocardiography), male versus female: only male mice received a therapeutic benefit
[1]; male and female animals
  calcification in valve tissue: reduced
[1]; male and female mice, three months
  SMAD1/5/8 phosphorylation in valve tissue: significantly attenuated
[1]; male and female mice, three months, RT-PCR
  markers of osteogenesis Runx2 and SPP1 (mRNA): reduced
[1]; male mice
  diastolic function (E/e′): significantly improved
  expression of Col15a1 (mRNA): increased
  expression of collagen 1a1 (mRNA): did not significantly affect
  relative collagen fiber thicknesses: did not impact
[1]; male mice compared with female mice
  valvular calcium, male versus female: Greater reductions in valvular calcium
[1]; male mice only, long-term treatment
  progression of valvular dysfunction and associated reductions in left ventricular diastolic function: significantly attenuated
[1]; male or female mice
  MMP2 expression: not altered
[1]; mice of both genders, 150 ppm in food, immunohistochemistry
  pVASP^239 in aortic valve tissue: significantly increased
[1]; mice of either gender, 150 ppm in food
  blood pressure: did not alter
[1]; only in female mice
  expression of the SMAD2/3 target genes CTGF and COL1A1: paradoxically reduced
[2]; 100 mg/day, 14 days
  seated systolic and diastolic blood pressure: significantly reduced
[2]; 200 mg/day, 14 days
  seated systolic and diastolic blood pressure: did not have a significant effect
[2]; 14 days
  supine systolic and diastolic blood pressure: significantly reduced
[2]; 14 days, seated to standing
  changes in heart rate upon standing: did not significantly or consistently alter
  changes in systolic and diastolic blood pressure upon standing: did not significantly or consistently alter
[2]; [3]
  blood pressure responses to head-up tilt: did not consistently or significantly alter
  heart rate responses to head-up tilt: did not consistently or significantly alter
[2]; either dose, 14 days
  resting blood pressure: did not significantly alter
[2]; humans
  tolerability (side effects and blood pressure regulation): well tolerated
